# From ChEMBL document CHEMBL1156425, “Proteasome inhibition induces glutathione synthesis and protects cells from oxidative stress: relevance to Parkinson disease” (J Biol Chem, 2007)
# Active and inactive are the calls of the source. No cut-off for these calls is given here. Where a SMILES comes first, the peptide text is derived from it. The star is where a group is joined. Cbz = O=C(OCc1ccccc1)*; OtBu = CC(C)(C)O*
# Experiments:
# PC-12 [1] = assay: Reversal of increase in glutathione level in rat PC12 cells at 1 uM in presence of 10 nM cycloheximide after 24 hrs relative to control; assay type: functional
# PC-12 [2] = assay: Inhibition of proteosome activity in rat PC12 cells at 0.3 uM after 6 hrs relative to control; assay type: cell-based; parameters: scale not given: the % may be the effect or the level left
# PC-12 [3] = assay: Reversal of increase in glutathione level in rat PC12 cells at 1 uM in presence of 3 uM BIM after 24 hrs relative to control; assay type: functional
# PC-12 [4] = assay: Inhibition of proteosome activity in rat PC12 cells at 0.1 uM after 6 hrs relative to control; assay type: cell-based; parameters: scale not given: the % may be the effect or the level left
# PC-12 [5] = assay: Reversal of increase in glutathione level in rat PC12 cells at 1 uM in presence of 10 uM SP600125 after 24 hrs relative to control; assay type: functional
# PC-12 [6] = assay: Inhibition of 200 uM hydrogen peroxide induced ROS production in rat PC12 cells pretreated for 24 hrs by MTT assay; assay type: functional, cell-based
# PC-12 [7] = assay: Reversal of increase in glutathione level in rat PC12 cells at 1 uM in presence of 10 uM SB-203580 after 24 hrs relative to control; assay type: functional
# PC-12 [8] = assay: Inhibition of 6-hydroxydopamine-induced cytotoxicity in rat PC12 cells pretreated for 24 hrs by MTT assay; assay type: functional, cell-based
# PC-12 [9] = assay: Reversal of increase in glutathione level in rat PC12 cells at 1 uM in presence of 3 uM SB-203580 after 24 hrs relative to control; assay type: functional
# PC-12 [10] = assay: Inhibition of proteosome activity in rat PC12 cells at 1 uM after 6 hrs relative to control; assay type: cell-based; parameters: scale not given: the % may be the effect or the level left
# PC-12 [11] = assay: Inhibition of proteosome activity in rat PC12 cells at 0.3 uM after 24 hrs relative to control; assay type: cell-based; parameters: scale not given: the % may be the effect or the level left
# PC-12 [12] = assay: Reversal of increase in glutathione level in rat PC12 cells at 1 uM in presence of 30 uM PD-98059 after 24 hrs relative to control; assay type: functional
# PC-12 [13] = assay: Inhibition of 150 uM 6-hydroxydopamine induced ROS production in rat PC12 cells pretreated for 24 hrs by MTT assay; assay type: functional, cell-based
# PC-12 [14] = assay: Inhibition of hydrogen peroxide induced cytotoxicity in rat PC12 cells pretreated for 24 hrs by MTT assay; assay type: functional, cell-based
# PC-12 [15] = assay: Inhibition of 6-hydroxydopamine induced cytotoxicity in differentiated rat PC12 cells pretreated for 24 hrs by MTT assay; assay type: functional, cell-based
# PC-12 [16] = assay: Inhibition of proteosome activity in rat PC12 cells at 1 uM after 24 hrs relative to control; assay type: cell-based; parameters: scale not given: the % may be the effect or the level left
# PC-12 [17] = assay: Inhibition of 300 uM 6-hydroxydopamine induced ROS production in rat PC12 cells pretreated at 1 uM for 24 hrs by MTT assay; assay type: functional, cell-based
# PC-12 [18] = assay: Increase in glutathione level in differentiated rat PC12 cells after 24 hrs; assay type: functional, cell-based
# PC-12 [19] = assay: Reversal of increase in glutathione level in rat PC12 cells at 1 uM in presence of 30 nM cycloheximide after 24 hrs relative to control; assay type: functional
# PC-12 [20] = assay: Increase in reduced glutathione level in rat PC12 cells after 24 hrs; assay type: functional, cell-based
# PC-12 [21] = assay: Reversal of increase in glutathione level in rat PC12 cells at 1 uM in presence of 100 nM cycloheximide after 24 hrs relative to control; assay type: functional
# PC-12 [22] = assay: Increase in oxidized glutathione level in rat PC12 cells at 1 uM after 24 hrs; assay type: functional, cell-based
# PC-12 [23] = assay: Increase in reduced glutathione level in rat PC12 cells at 1 uM after 24 hrs; assay type: functional
# PC-12 [24] = assay: Inhibition of 300 uM hydrogen peroxide induced ROS production in rat PC12 cells pretreated at 1 uM for 24 hrs by MTT assay; assay type: functional, cell-based
# PC-12 [25] = assay: Reversal of cytoprotection activity in rat PC12 cells pretreated at 1 uM for 24 hrs in presence of p38 MAPK inhibitor SB-203580; assay type: functional, cell-based
# PC-12 [26] = assay: Translocation of Nrf2 protein to nucleus in rat PC12 cells at 1 uM around 6 or 9 hrs; assay type: functional, cell-based
# PC-12 [27] = assay: Inhibition of 6-hydroxydopamine induced cytotoxicity in differentiated rat PC12 cells pretreated for 24 hrs by lactate dehydrogenase release assay; assay type: functional, cell-based
# PC-12 [28] = assay: Inhibition of proteosome activity in rat PC12 cells at 0.1 uM after 24 hrs relative to control; assay type: cell-based; parameters: scale not given: the % may be the effect or the level left
# PC-12 [29] = assay: Increase in oxidized glutathione level in rat PC12 cells at 1 uM after 12 hrs; assay type: functional, cell-based
# PC-12 [30] = assay: Reversal of increase in glutathione level in rat PC12 cells at 1 uM in presence of 30 uM SB-203580 after 24 hrs relative to control; assay type: functional
# PC-12 [31] = assay: Increase in GLCLC subunit mRNA expression in rat PC12 cells at 1 uM after 12 hrs; assay type: functional, cell-based
# PC-12 [32] = assay: Reversal of increase in glutathione level in rat PC12 cells at 1 uM in presence of 10 uM wortmannin after 24 hrs relative to control; assay type: functional
# PC-12 [33] = assay: Reversal of increase in GLCLC subunit mRNA expression in rat PC12 cells at 1 uM after 12 hrs in presence of p38 MAPK inhibitor SB-203580; assay type: functional, cell-based
# PC-12 [34] = assay: Inhibition of hydrogen peroxide induced cytotoxicity in rat PC12 cells pretreated for 24 hrs assessed as elevation of intracellular glutathione level; assay type: functional, cell-based
# PC-12 [35] = assay: Inhibition of 6-hydroxydopamine induced cytotoxicity in rat PC12 cells pretreated for 24 hrs assessed as elevation of intracellular glutathione level; assay type: functional, cell-based
# PC-12 [36] = assay: Cytotoxicity against rat PC12 cells after 24 hrs by MTT assay; assay type: functional, cell-based; details: PC-12, 24 h
compound,measurement,setting,value
CC(=O)N[C@@H](CSC(=O)[C@]1([C@@H](O)C(C)C)NC(=O)[C@H](C)[C@@H]1O)C(=O)O [LACTACYSTIN],Activity,PC-12 [1],216.8 nmol/mg
same,Activity,PC-12 [2],70.3%
same,Activity,PC-12 [3],354 nmol/mg
same,Activity,PC-12 [4],98%
same,Activity,PC-12 [5],341.4 nmol/mg
same,Activity,PC-12 [6],Active
same,Activity,PC-12 [7],190.5 nmol/mg
same,Activity,PC-12 [8],Dose-dependent effect
same,Activity,PC-12 [9],220 nmol/mg
same,Activity,PC-12 [10],49.7%
same,Activity,PC-12 [11],84.9%
same,Activity,PC-12 [12],234 nmol/mg
same,Activity,PC-12 [13],Active
same,Activity,PC-12 [14],Dose-dependent effect
same,Activity,PC-12 [15],Dose-dependent effect
same,Activity,PC-12 [16],77.2%
same,Activity,PC-12 [17],Active
same,Activity,PC-12 [18],Dose-dependent effect
same,Activity,PC-12 [19],150 nmol/mg
same,Activity,PC-12 [20],Dose-dependent effect
same,Activity,PC-12 [21],98.3 nmol/mg
same,Activity,PC-12 [22],Active
same,Activity,PC-12 [23],320.5 nmol/mg
same,Activity,PC-12 [24],Active
same,Activity,PC-12 [25],Active
same,Activity,PC-12 [26],Active
same,Activity,PC-12 [27],Active
same,Activity,PC-12 [28],94.3%
same,Activity,PC-12 [29],inactive
same,Activity,PC-12 [30],133.5 nmol/mg
same,Activity,PC-12 [31],Active
same,Activity,PC-12 [32],248.7 nmol/mg
same,Activity,PC-12 [33],Active
CC[C@H](C)[C@H](NC(=O)OCc1ccccc1)C(=O)N[C@@H](CCC(=O)OC(C)(C)C)C(=O)N[C@@H](C)C(=O)N[C@H](C=O)CC(C)C (Cbz-IE(OtBu)AL-aldehyde),Activity,PC-12 [20],Active
CC(C)C[C@@H](C=O)NC(=O)[C@H](CC(C)C)NC(=O)[C@H](CC(C)C)NC(=O)OCc1ccccc1 (Cbz-Leu-Leu-Leu-aldehyde),Activity,PC-12 [20],Active
CC(=O)N[C@@H](CS)C(=O)O,Activity,PC-12 [34],Active
same,Activity,PC-12 [35],Active
NCCc1cc(O)c(O)cc1O [OXIDOPAMINE],EC50,PC-12 [36],106 µM
